Patent EP4527379A1, “LIPIDS CONTAINING AN OLIGOGLYCEROL GROUP” (Thermosome GmbH, priority 2023, dated 2025)

What was measured:
[1] = LNP formulations with the cationizable lipid (Carrasco et al. 2021); cited from earlier work
[2] = Solubility and chemical stability in organic solvents; assay type: physicochemical
Method: CLG2 is readily soluble in chloroform as a clear solution with at least 10 mg/ml.

[3] = Indicative storage stability studies using HPLC/CAD; assay type: physicochemical
Method: The batch was investigated in indicative storage stability studies using HPLC/CAD. CLG2 is stable in its powder form for at least 1 year when stored at -20°C. In contrast to NLG2, CLG2 could also be stored in organic solvents (e.g., chloroform) at temperature ranges from -20 to 2-8°C for at least 9 months.

solubility ([2]; chloroform, organic solvent or mixture, read-out: soluble in chloroform as a clear solution) [µg/mL] | decomposition in ethanol ([2]; ethanol, compared with methanol and isopropanol) | could be stored in organic solvents ([3]; organic solvents (e.g., chloroform), -20 to 2-8°C) | stable in its powder form ([3]; powder, stored at -20°C) | Compound | pKa [1]
– | – | – | – | CCCCC/C=C\C/C=C\CCCCCCCCC(CCCCCCCC/C=C\C/C=C\CCCCC)OC(=O)CCCN(C)C [DLin-MC3-DMA] | 6.57
≥ 10000 | less pronounced | at least 9 months | at least 1 year | CCCCCCCCCCCCCCCC(=O)OCC(C[N+](C)(C)CC(O)COCC(O)CO)OC(=O)CCCCCCCCCCCCCCC (centres unmarked) [CLG2] | –
